Laboratory results from PMC4450769, “Placement of oppositely charged aminoacids at a polypeptide termini determines the voltage-controlled braking of polymer transport through nanometer-scale pores” (Scientific Reports, 2015).

Test system: Staphylococcus aureus α-hemolysin (α-HL) pore
Type: biochemical

Ac-RRRRRRAAAAAARRRRRR- NH 2 [CP2, control peptide construct with net charge of ~ +6 e− at both N- and C-termini at neutral pH]
capture by the pore as a function of potential polarity (5 µM): captured by the pore only for positive potentials | association with and block of the α-HL pore at negatively applied potential (pH 7.3): does not associate and block
